# System: FSH
# Experiment: FSH level in blood (serum CLIA) after repeated sc PEP-1
# Format: in vivo, SD rats
# Description: PEP-1 (peptide of SEQ ID NO: 1), lyophilized white powder, obtained according to the method mentioned in example 1 was dissolved in 0.9% of saline, considering the correction factor of PEP-1 (purity: 94.13%, content: 92.36%, correction factor: 1.15). 50 mg/mL stock solution was further diluted into 20 mg/mL, 2 mg/mL, and 1 mg/mL with 0.9% saline, and stored at 4° C. for a week until the use.
# The purpose of this example is to confirm the change of sexual hormones in blood from SD rats with 7 days repeated daily administration of SEQ ID NO: 1 peptide, PEP-1. This experiment followed the Ethics Regulation of Animal Test by KAMSI Inc. (Korea Animal Medical Science Institute). In addition, this experiment, Non-GLP experiment, referred to the MFDS (Ministry of Food and Drug Safety) notification; Agent 2013-40 (5th April 2013), Principles of Good Laboratory Practice (1997).
# SPF Rats (Crlj:CD(SD)) were purchased from ORIENTBio Inc. (Mokdong-ri, Buk-myeon, Gapyeong-gun, Gyeonggi-do, Republic of Korea). 75 male (6.5 weeks old and 190˜210 g) and 75 female (6.5 weeks old and 160˜180 g) rats were monitored for 4 days, and 64 of male and female rats (each) were selected for the experiment. Raising condition is as follows; 23±3° C. of temperature, […] of relative humidity, 10˜20 times/hr of number of air changes, 12 hours (8 a.m.˜8 p.m.) of lighting with 150˜300 Lux of intensity.
# 64 male and female […] (mentioned above) were divided into 8 groups. Administration regimen, for example, drugs, routes, dosages, and volumes were as follows:
# The detailed administration regimen is as follows; once a day, twice a day and twice a week in each experimental group. Injection initiated at 10 a.m. every day, and each rat was injected at one minute intervals. Rats in Group 9, 10, 13 and 14 were injected twice a week. Administration of high dose test agent preceded that of low dose. The volume of injection was calculated using recently measured weight of rats, and it was 5 mL/kg. Subcutaneous injection was performed as follows; assistant tilted the back of rat upward, and experimenter sterilized the back of rat with 70% alcohol, followed by subcutaneous injection of test agent with 26 G syringe.
# 1.4 mL of blood sample (0.7 mL of serum) was collected after measurement of weight (Day 0). Next day (1 Day), 1.4 mL of blood sample (0.7 mL of serum) was collected twice after injection of test agent (4 hrs and 8 hrs after administration of test agent). For next 6 days (Day 2˜Day 7), 1.4 mL of blood was extracted once everyday (4 hours after injection of test agent). Dose and volume of test agent of each group followed the Table 3, and injection time zone was same every day. Blood was extracted from the jugular vein, and left at room temperature for 30 minutes. Serum was separated using centrifugation (10,000 rpm for 5 minutes), and stored at −70±5° C. in Deep freezer until the use. Blood extraction from each subject was done in the same time zone every day.
# A CLIA (Chemi-Luminescence Immune Assay) Kit was used to analyze Testosterone, Estradiol E2, FSH (Follicle stimulating hormone), and LH (Luteinizing hormone). Analysis was completed within 48 hrs after blood extraction (Laboratory Medicine Department, Chung-Ang University Hospital), and detailed method is as follows; One-way ANOVA was used to verify the comparison between the vehicle and PEP-1, and between different doses of PEP-1. For further analysis, Duncan test was used as parametric test and Dunnett's test as non-parametric test. p<0.05 represents the statistical significance, and all statistical analysis was carried out with SPSS 10.1.
# FSH was analyzed using the samples prepared from example 2. 100 μL of serum was used for analysis. Fundamentals of analysis is Two-site sandwich immunoassay based on direct chemi-luminescent. As mentioned in example 2, CLIA (Chemi-luminescence immune assay) Kit was used, following the manufacture's protocol.
sequence,measurement,setting,value
"EARPALLTSRLRFIPK (listed as Homo sapiens) [PEP-1, hormone secretion modulator / GnRH analog]",FSH level in blood,"G11 Male 100 mg/kg sc 1/day x7, 4 days",0.23 mIU/mL
same,FSH level in blood,"G11 Male 100 mg/kg sc 1/day x7, 5 days",0.21 mIU/mL
same,FSH level in blood,"G11 Male 100 mg/kg sc 1/day x7, 6 days",0.12 mIU/mL
same,FSH level in blood,"G11 Male 100 mg/kg sc 1/day x7, 7 days",0.15 mIU/mL
same,FSH level in blood,"G11 Male 100 mg/kg sc 1/day x7, pre",0.17 mIU/mL
same,FSH level in blood,"G12 Female 100 mg/kg sc 1/day x7, 4 hr",0.23 mIU/mL
same,FSH level in blood,"G12 Female 100 mg/kg sc 1/day x7, 8 hr",0.25 mIU/mL
same,FSH level in blood,"G12 Female 100 mg/kg sc 1/day x7, 2 days",0.28 mIU/mL
same,FSH level in blood,"G12 Female 100 mg/kg sc 1/day x7, 3 days",0.19 mIU/mL
same,FSH level in blood,"G12 Female 100 mg/kg sc 1/day x7, 4 days",0.15 mIU/mL
same,FSH level in blood,"G12 Female 100 mg/kg sc 1/day x7, 5 days",0.21 mIU/mL
same,FSH level in blood,"G12 Female 100 mg/kg sc 1/day x7, 6 days",0.1 mIU/mL
same,FSH level in blood,"G12 Female 100 mg/kg sc 1/day x7, 7 days",0.12 mIU/mL
same,FSH level in blood,"G12 Female 100 mg/kg sc 1/day x7, pre",0.21 mIU/mL
same,FSH level in blood,"G13 Male 100 mg/kg sc 2/week x2 (days 1,7), 4 hr",0.21 mIU/mL
same,FSH level in blood,"G13 Male 100 mg/kg sc 2/week x2 (days 1,7), 8 hr",0.23 mIU/mL
same,FSH level in blood,"G13 Male 100 mg/kg sc 2/week x2 (days 1,7), 2 days",0.24 mIU/mL
same,FSH level in blood,"G13 Male 100 mg/kg sc 2/week x2 (days 1,7), 3 days",0.19 mIU/mL
same,FSH level in blood,"G13 Male 100 mg/kg sc 2/week x2 (days 1,7), 4 days",0.26 mIU/mL
same,FSH level in blood,"G13 Male 100 mg/kg sc 2/week x2 (days 1,7), 5 days",0.37 mIU/mL
same,FSH level in blood,"G13 Male 100 mg/kg sc 2/week x2 (days 1,7), 6 days",0.19 mIU/mL
same,FSH level in blood,"G13 Male 100 mg/kg sc 2/week x2 (days 1,7), 7 days",0.14 mIU/mL
same,FSH level in blood,"G13 Male 100 mg/kg sc 2/week x2 (days 1,7), pre",0.38 mIU/mL
same,FSH level in blood,"G14 Female 100 mg/kg sc 2/week x2 (days 1,7), 4 hr",0.48 mIU/mL
same,FSH level in blood,"G14 Female 100 mg/kg sc 2/week x2 (days 1,7), 8 hr",0.4 mIU/mL
same,FSH level in blood,"G14 Female 100 mg/kg sc 2/week x2 (days 1,7), 2 days",0.23 mIU/mL
same,FSH level in blood,"G14 Female 100 mg/kg sc 2/week x2 (days 1,7), 3 days",0.17 mIU/mL
same,FSH level in blood,"G14 Female 100 mg/kg sc 2/week x2 (days 1,7), 4 days",0.14 mIU/mL
same,FSH level in blood,"G14 Female 100 mg/kg sc 2/week x2 (days 1,7), 5 days",0.24 mIU/mL
same,FSH level in blood,"G14 Female 100 mg/kg sc 2/week x2 (days 1,7), 6 days",0.17 mIU/mL
same,FSH level in blood,"G14 Female 100 mg/kg sc 2/week x2 (days 1,7), 7 days",0.22 mIU/mL
same,FSH level in blood,"G14 Female 100 mg/kg sc 2/week x2 (days 1,7), pre",0.17 mIU/mL
same,FSH level in blood,"G15 Male 250 mg/kg sc 1/day x7, 4 hr",0.26 mIU/mL
same,FSH level in blood,"G15 Male 250 mg/kg sc 1/day x7, 8 hr",0.35 mIU/mL
same,FSH level in blood,"G15 Male 250 mg/kg sc 1/day x7, 2 days",0.44 mIU/mL
same,FSH level in blood,"G15 Male 250 mg/kg sc 1/day x7, 3 days",0.12 mIU/mL
same,FSH level in blood,"G15 Male 250 mg/kg sc 1/day x7, 4 days",0.23 mIU/mL
same,FSH level in blood,"G15 Male 250 mg/kg sc 1/day x7, 5 days",0.25 mIU/mL
same,FSH level in blood,"G15 Male 250 mg/kg sc 1/day x7, 6 days",0.1 mIU/mL
same,FSH level in blood,"G15 Male 250 mg/kg sc 1/day x7, 7 days",0.12 mIU/mL
same,FSH level in blood,"G15 Male 250 mg/kg sc 1/day x7, pre",0.38 mIU/mL
same,FSH level in blood,"G16 Female 250 mg/kg sc 1/day x7, 4 hr",0.27 mIU/mL
same,FSH level in blood,"G16 Female 250 mg/kg sc 1/day x7, 8 hr",0.3 mIU/mL
same,FSH level in blood,"G16 Female 250 mg/kg sc 1/day x7, 2 days",0.34 mIU/mL
same,FSH level in blood,"G16 Female 250 mg/kg sc 1/day x7, 3 days",0.20 mIU/mL
same,FSH level in blood,"G16 Female 250 mg/kg sc 1/day x7, 4 days",0.12 mIU/mL
same,FSH level in blood,"G16 Female 250 mg/kg sc 1/day x7, 5 days",0.19 mIU/mL
same,FSH level in blood,"G16 Female 250 mg/kg sc 1/day x7, 6 days",0.18 mIU/mL
same,FSH level in blood,"G16 Female 250 mg/kg sc 1/day x7, 7 days",0.08 mIU/mL
same,FSH level in blood,"G16 Female 250 mg/kg sc 1/day x7, pre",0.19 mIU/mL
same,Change in FSH level compared to baseline,"male and female, Day 1, 4 hr and 8 hr post injection, in particular high doses (G11 to G16)",slight increase

# Source: US10561703B2, “Method of modulating sex hormone levels using a sex hormone secretion modulator” (GEMVAX & KAEL CO., LTD., priority 2013, dated 2020)
